Data: PMC3560175 (Virology Journal, 2012)

How the values were obtained:
[1] = system: V106A RT mutant VSV-G pseudotyped HIV-1 vector; format: cell-based; details: read-out: Antiviral EC50 V106A
[2] = system: K103N RT mutant VSV-G pseudotyped HIV-1 vector; format: cell-based; details: read-out: Antiviral EC50 K103N
[3] = system: wild type VSV-G pseudotyped HIV-1 vector; assay: microbe, parasite or virus in culture; format: cell-based; details: Human immunodeficiency virus 1, HEK-293T; 293T cells, average ± SD of two independent experiments in duplicate; read-out: Antiviral EC50 wt
[4] = in vitro; details: human
[5] = system: Y181C RT mutant VSV-G pseudotyped HIV-1 vector; format: cell-based; details: read-out: Antiviral EC50 Y181C
[6] = system: Y188L RT mutant VSV-G pseudotyped HIV-1 vector; format: cell-based; details: read-out: Antiviral EC50 Y188L
[7] = system: VSVg-pseudotyped HIV-1 vector; format: cell-based
[8] = system: pLai3Luc2 HIV-1 vector; assay: microbe, parasite or virus in culture; format: cell-based
[9] = biological target: T1, HIV-1 reverse transcriptase (RT) (Human immunodeficiency virus type 1 group M subtype B, UniProt P03366); assay: biochemical
T1 construct: recombinant purified HIV-1 reverse transcriptase (RT) activity; purchased Ambion, Austin, TX

[10] = system: HIV-1 vector (NL4-3 Nef + IRES rluc); assay: microbe, parasite or virus in culture; format: cell-based
[11] = system: VSVg-pseudotyped HIV-1 vector (pNL4-3LucR+E-); assay: microbe, parasite or virus in culture; format: cell-based
[12] = system: PBMCs
Procedure: PBMCs were activated in PBMC Growth Medium (RPMI 1640 with 15% FBS, Pen/Strep, 25 mM HEPES, 100 U/ml IL-2) supplemented with 5 μg/ml PHA-P. Two days after activation, the PBMC’s were maintained in the same medium (without PHA-P) for 3 more days. Aliquots of 2x10^4 PBMCs were then plated in 80 μl PBMC Growth Medium in each well of white 96 well plates (CoStar) and returned to the incubator overnight. […] Eight replicate samples were then set up, with 10 μl aliquots of the serially-diluted compounds added to the cells, and preincubated at 37°C for one hour prior to virus challenge. The cells were then challenged with 10 μl per well of the NL4-3 Nef+ IRES rluc virus vector bringing the total volume in each well to 100 μl final. The plates were incubated at 37°C for five days and then viral infection was monitored by adding 100 μl per well of Renilla-Glo Luciferase Reagent (Promega) and measuring the resultant luciferase activities using a Topcount-HTS (PerkinElmer). Cell toxicity was assessed on a duplicate plate of samples by adding 100 μl Cell-Titer Glo Reagent (Promega) and reading on a Topcount-HTS.

[13] = system: early and late HIV-1 reverse transcription products; assay: Real-time PCR quantitation of early and late viral DNA in infected 293T cells; format: cell-based; details: 5 μM added 1 hr before infection, 24 hrs post infection

Compound: Cc1ccnc2c1NC(=O)c1cccnc1N2C1CC1 [NVP, nevirapine]
- EC50 [1]: 1260 ± 159 nM
- EC50 [2]: 841 ± 49 nM
- EC50 [3]: 19 ± 2 nM
- CC50 [4]: > 50000 nM
- EC50 [5]: 2879 ± 6 nM
- EC50 [6]: > 20000 nM

Compound: Cc1cn([C@H]2C[C@H](N=[N+]=[N-])[C@@H](CO)O2)c(=O)[nH]c1=O [AZT, 3’-azido-3’-deoxythymidine]
- EC50 [1]: 15 ± 1 nM
- EC50 [2]: 14 ± 2 nM
- EC50 [3]: 14 ± 3 nM
- CC50 at 24 h [4]: > 50000 nM
- EC50 [5]: 6 nM
- EC50 [6]: 11 ± 5 nM

Compound: Clc1ccccc1-c1nc2ccccn2c1NC1CCCCC1 [F2]
- EC50 [1]: 1280 ± 357 nM
- combination effect with AZT (isobologram) [7]: synergy
- combination effect with NVP (isobologram) [7]: additivity
- EC50 [2]: 3230 ± 127 nM
- selectivity index [8]: 29.5
- EC50 ([8]; Human immunodeficiency virus 1, CEM-GFP, 48 h): 862 ± 88 nM
- IC50 [9]: 2550 ± 365 nM
- selectivity index [10]: > 11.6
- EC50 ([10]; Human immunodeficiency virus 1, NL43, PBMC, 120 h): 865 ± 222 nM
- decrease of luciferase activity (library screen) [11]: more than 50%
- selectivity index [11]: 88.1
- EC50 ([11]; Human immunodeficiency virus 1, HEK-293T, read-out: EC50 (luciferase-based infectivity)): 387 ± 46 nM
- cell toxicity [12]: absence of cell toxicity
- synthesis of early and late viral DNA products [13]: blocked the synthesis of both early and late viral DNA products
- EC50 [3]: 165 ± 39 nM
- EC50 [5]: 1680 ± 271 nM
- EC50 [6]: > 20000 nM
